This is an account of results in the METLIN SMRT retention time set (Domingo-Almenara et al. 2019).

The series is described as follows: gradient 5% acetonitrile 3 min, to 50% in 2 min, to 85% in 15 min, held 3 min, 100 µL/min. To be noted: column: Zorbax Extend-C18 2.1 x 50 mm; eluents: water / acetonitrile, 0.1% formic acid. The procedure, abridged:
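Data were gathered over 3 months by HPLC coupled to a quadrupole time-of-flight mass spectrometer, operated in positive and negative ionization mode. Mixtures of ~100 pure standards ran on a Zorbax Extend-C18 column (2.1 × 50 mm, 1.8 μm) at 100 μL/min, with water and acetonitrile each containing 0.1% formic acid and dead and dwell volumes of 40 μL and 900 μL. Retention time was read from adduct peaks picked by computer and checked manually.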
Turning to `O=C(Cc1c[nH]c2ccccc12)N1CCC(NS(=O)(=O)c2ccc(Cl)cc2)CC1`, the RP-LC retention time turned out to be 829 s.
As for `O=C(NCc1ccc(F)cc1)c1ccc(-c2ccsc2)nc1`, the RP-LC retention time was determined as 854 s.
The result for `CCCn1ccc2oc(C)c(C(=O)N3CCN(c4ccc(OC)cc4)CC3)c2c1=O` reads 707 s; that for `O=C(Cn1nc2c(SC3CCCCC3)nccn2c1=O)NC1CCCCC1`, 987 s; that for `O=C(CN1C(=O)COc2ccccc2C1=O)c1cccc([N+](=O)[O-])c1`, 863 s.
In turn, `CN(C)c1ccc(C(=O)NCc2nn(C)c3ccccc23)cc1` had an RP-LC retention time of 778 s.
`Cc1cccc(-c2ncccc2CNS(=O)(=O)c2cccc(F)c2)c1` gave an RP-LC retention time of 724 s.
The value for `CC1=C(c2ccc(C)cc2)S(=O)(=O)N=C1N1CCCN(C(=O)C2CCCO2)CC1` (stereo unspecified) was 733 s.
For `Cc1ccc(C(=O)N2CCc3c(c(C(=O)N4CCCC(C(=O)NC5CC5)C4)nn3C)C2)cc1` (stereo unspecified), the RP-LC retention time was found to be 661 s.
`COc1ccc(-c2ncc3c(n2)CCN(S(=O)(=O)c2ccc(F)c(F)c2)C3)cc1`: the RP-LC retention time was 1060 s.
As to `CCSc1ccccc1C(=O)NCc1ccsc1`, the RP-LC retention time was found to be 786 s.
Consider `O=C(/C=C/c1ccccc1)Nc1nc(-c2ccccc2)cs1`, for which the RP-LC retention time turned out to be 1070 s.
As to `O=C(NCc1cnccn1)c1ccnc(N2CCNC(c3ccccc3)C2)c1` (stereo unspecified), the RP-LC retention time turned out to be 581 s.
Take `COC(=O)c1ccccc1Sc1c(-c2ccccc2)nc2ncccn12`: the RP-LC retention time was determined as 875 s.
In turn, `CCn1c(C)c(CCC(=O)NCC2CCCO2)c(=O)n2nc(-c3ccccc3)nc12` (stereo unspecified) returned an RP-LC retention time of 691 s.
As for `O=C1C(N2CCN(S(=O)(=O)c3ccc(Cl)cc3)CC2)CCN1CCc1ccccc1` (stereo unspecified), the RP-LC retention time amounted to 718 s.
In the case of `O=C(NCc1ccccc1)C1CC(=O)N(CCc2c[nH]c3ccc(F)cc23)C1` (stereo unspecified), the RP-LC retention time turned out to be 764 s.
The result for `CCOc1ccc2nc(C(=O)N3CCN(c4ccccn4)CC3)cn2n1` reads 600 s; that for `O=C(Nc1ccc2c(c1)OCCO2)C1CCN(C(=O)c2ccc(-c3noc(C4CC4)n3)cc2)CC1`, 828 s; that for `FC(F)(F)c1cccc(N2CCN(c3ncnc4sccc34)CC2)c1`, 987 s.
In the case of `c1cncc(-c2noc(CCC3CCCN(C4CCCCC4)C3)n2)c1` (stereo unspecified), the RP-LC retention time is 624 s.
The compound `COC(=O)CC(=O)Nc1cc2c(cc1N1CCCC1)n(C)c(=O)n2C` came in with an RP-LC retention time of 565 s.
In turn, `COc1ccc(-c2ccc3ncc4c(c3c2)n(-c2ccc(N3CCNCC3)c(C(F)(F)F)c2)c(=O)n4C)cn1` registered an RP-LC retention time of 630 s.
For the compound `CCC(C)NS(=O)(=O)c1cc(-c2nc(C)cs2)n(CC(=O)N2CCCCC2)c1` (stereo unspecified), the RP-LC retention time was found to be 920 s.
In turn, `CSc1ccccc1CN1CCC(CNC(=O)C(=O)Nc2ccon2)CC1` registered an RP-LC retention time of 558 s.
The compound `COc1ccc(S(=O)(=O)c2ccc(NCc3cccc(OC)c3)nn2)cc1` yielded an RP-LC retention time of 860 s.
Compound `CCc1cccc(NC(=O)CSc2cc(N3CCN(c4ccc(OC)cc4)CC3)ncn2)c1` gave an RP-LC retention time of 1040 s.
Regarding `CC(C)NC(=O)C1CCN(S(=O)(=O)c2cc(C(=O)N3CCCCCC3)cs2)CC1`, the RP-LC retention time was 767 s.
With `c1ccc(-c2n[nH]c(C3CCCN(Cc4ccoc4)C3)n2)cc1` (stereo unspecified), the RP-LC retention time worked out at 531 s.
`O=C1N(c2cccc(F)c2)c2ncccc2S(=O)(=O)N1Cc1ccccc1F` yielded an RP-LC retention time of 1020 s.
`OC1(c2ccccc2)CN(c2ccccc2)C2=[N+]1CCS2` (stereo unspecified): the RP-LC retention time came to 551 s.
Turning to `O=C(CSCc1ccccc1)Nc1c(-c2ccc(F)cc2)nc2ccccn12`, the RP-LC retention time was found to be 714 s.
Regarding `Cc1ccc(CNC(=O)C2CCCN(c3cnc4nccnc4c3)C2)cc1C` (stereo unspecified), the RP-LC retention time was found to be 722 s.
As for `COCCCNC(=O)N1CCCN(C2=NS(=O)(=O)C(c3ccc(F)cc3)=C2C)CC1`, the RP-LC retention time was 709 s.
In turn, `Cc1ccc(NC(=O)Cn2c(C)nc3c(sc4nc(-c5ccccc5)ccc43)c2=O)cc1Cl` returned an RP-LC retention time of 1030 s.
As for `COc1cccc(-n2c(N3CCCC(C(=O)NCCC4=CCCCC4)C3)nc3ccsc3c2=O)c1` (stereo unspecified), the RP-LC retention time was found to be 1020 s.
On to `Cc1cc(N2CCN(C(=O)Nc3ccccc3Cl)CC2)nc(N2CCOCC2)n1`, for which the RP-LC retention time was determined as 637 s.
The compound `CCCc1c(C(=O)O)nnn1Cc1ccc(OC)cc1` showed an RP-LC retention time of 710 s.
For `O=C(c1ccco1)N1CCC2(CC1)NCCc1c2[nH]c2ccccc12`, the RP-LC retention time turned out to be 631 s.
The value for `CC(=O)Oc1ccc(C(=O)NCCc2c[nH]c3ccc(Cl)cc23)cc1` was 853 s; that for `O=C(Cn1c(=O)c2cccn2c2ccccc21)NCCN1CCOCC1` was 592 s; that for `COc1ccc(Cl)cc1NC(=O)Nc1ccccc1NC(=O)c1ccco1` was 873 s.
In the case of `CCc1noc(-c2ccc(-n3ncc(C(=O)N4CCC(C)CC4)c3C)nc2)n1`, the RP-LC retention time was found to be 1020 s.
In turn, `O=C(NC1CC1)c1c2c(nc3ccc(F)cc13)CCC2` registered an RP-LC retention time of 650 s.
In the case of `Cc1ccc(CN2CCN(CC(=O)Nc3ccc(Cl)cn3)C(=O)C2=O)cc1`, the RP-LC retention time was 759 s.
The value for `Clc1ccc(-c2ccc(CNCC3CCNCC3)o2)c(Cl)c1` was 611 s; that for `O=C(NCc1ccc(N2CCOCC2)nc1)c1cccc(Br)c1` was 626 s; that for `CC(C)NC(=O)N1CCC(Oc2ccccc2)C1` (stereo unspecified) was 764 s.
For `CCOc1ccccc1NC(=O)N1CCCC(Cn2c(C3CC3)nc3cccnc32)C1` (stereo unspecified), the RP-LC retention time came out at 725 s.
The value for `O=C(Nc1ccc2nnc(-c3ccc(C(=O)N4CCSCC4)cc3)n2c1)C1CCC1` was 885 s; that for `O=C(CCc1cn(-c2ccccc2)nc1-c1ccc2c(c1)OCO2)NCCc1ccco1` was 1100 s.
Turning to `CCSc1nnc(NC(=O)CSc2nccn2-c2ccc(OC)cc2OC)s1`, the RP-LC retention time was 682 s.
The result for `COc1ccc(NC(=O)c2nc3nc(C)cc(C(F)F)n3n2)cc1Cl` reads 813 s; that for `CCCCN(CC)CCNC(=O)C1CCN(c2ncnc3onc(C)c23)CC1`, 598 s.
The compound `CC(=O)N1CCCc2cc(S(=O)(=O)CCC(=O)Nc3ccc(C)c(C)c3)ccc21` gave an RP-LC retention time of 784 s.
In the case of `COc1ccc(CCN2CC(C(=O)O)CC2=O)cc1OC` (stereo unspecified), the RP-LC retention time was 611 s.
On to `CNC(=O)CN1c2ccccc2NC2=C(C(=O)CC(C)(C)C2)C1c1ccc(OC)cc1` (stereo unspecified), for which the RP-LC retention time is 729 s.
Regarding `Cc1ccc(NC(=O)c2cnn3c2CCCC3)c(C)c1`, the RP-LC retention time was found to be 762 s.
For the compound `N#Cc1cccc(NC(=O)C2CCN(S(=O)(=O)c3cc(C(=O)N4CCCC4)cs3)CC2)c1`, the RP-LC retention time turned out to be 995 s.
Regarding `CCCN1CCN(CCCNC(=O)Cn2c3ccccc3c3cnn(C)c(=O)c32)CC1`, the RP-LC retention time is 560 s.
With `COc1ccc(C2CCCCCN2S(C)(=O)=O)cc1` (stereo unspecified), the RP-LC retention time came out at 932 s.
The value for `Cn1nc(N2CCC(NC(=O)CCn3cccn3)C2)ccc1=O` (stereo unspecified) was 582 s; that for `O=C(CCN1C(=O)C2CC=CCC2C1=O)N1CCN(c2ccccn2)CC1` (stereo unspecified) was 558 s; that for `O=c1ccc(S(=O)(=O)N2CCOCC2)cn1Cc1cccc(Cl)c1` was 809 s.
On to `Cn1c(C2CCN(C(=O)c3ccc(Br)cc3)CC2)cc(=O)n2nccc12`, for which the RP-LC retention time was determined as 679 s.
The value for `Cc1ccc(Nc2c(-c3ccc([N+](=O)[O-])cc3)nc3ccc(Cl)cn23)cc1` was 1100 s.
The compound `Cc1ccc(-n2c(N3CCCC(C(=O)Nc4ccc(F)c(C)c4)C3)nc3ccsc3c2=O)cc1` (stereo unspecified) displayed an RP-LC retention time of 1040 s.
`CCC(=O)N(C1CCOCC1)C1CCN(S(=O)(=O)c2ccc(F)c(F)c2)CC1` displayed an RP-LC retention time of 856 s.
Consider `Cc1ccc(N2CC(c3noc(-c4ccco4)n3)CC2=O)cc1` (stereo unspecified), for which the RP-LC retention time was 877 s.
`Cc1cc(F)ccc1NC(=O)Cn1cccc1-c1nnc(C2CCC2)o1` showed an RP-LC retention time of 916 s.
For `CC(=O)Nc1ccc(C2(C(=O)N3CCCCCC3)CCC2)cc1`, the RP-LC retention time is 769 s.
`Cc1cc2n(n1)CCC(=O)N2CCCC(=O)N1CCN(C(=O)c2ccco2)CC1` registered an RP-LC retention time of 604 s.
Regarding `COCC1(F)CCN(Cc2c(-c3ccc(C)cc3)nc3c(C)cccn23)CC1`, the RP-LC retention time came to 608 s.
For the compound `Cc1nc(CC(=O)Nc2nc(-c3ccc(C)c(C)c3)cs2)cs1`, the RP-LC retention time is 989 s.
The value for `Cc1oc(-c2ccc(C(=O)NCCN3CCCC3)cc2)nc1COc1ccccc1` was 698 s; that for `O=C(Cn1cccc1-c1nnc(-c2ccccc2)o1)N1CCN(c2ccc(Cl)cc2)CC1` was 1100 s; that for `Cc1ccsc1C(=O)NCC1CN(C(C)C)CC12CCCCC2` (stereo unspecified) was 652 s.
`O=C(CCC(=O)N1CC2CCCN2c2ccccc21)NCCN1CCOCC1` (stereo unspecified): the RP-LC retention time came to 620 s.
As to `CC(=O)Nc1ccc(-n2cnc(C(=O)N3CCN(c4ccc(F)cc4)CC3)c2)nc1`, the RP-LC retention time was determined as 688 s.
As for `CCCc1cc(N2CCN(c3ccccn3)CC2)n2nc3nc(C)cc(C)c3c2n1`, the RP-LC retention time worked out at 615 s.
In the case of `Cc1cc(C)n(-c2cc(N3CCCC(C(=O)Nc4nnc(C)s4)C3)ncn2)n1` (stereo unspecified), the RP-LC retention time stood at 717 s.
